Where two headings read alike, the source gives them in different places.
Experiments:
[1] = tested on: NFkappaB; test: NFkappaB reporter assay, iCD40 constructs in Jurkat T cells with titrated AP20187; type: cell-based, human
Method: Reporters assays were conducted in human Jurkat-TAg (T cells) or 293 (kidney embryonic epithelial) cells or murine RAW264.7 (macrophage) cells. Jurkat-TAg cells (107) in log-phase growth were electroporated ([…], 250 V) with […] expression plasmid and […] of reporter plasmid NF-kB-SEAP or IFNb-TA-SEAP (see above). 293 or RAW264.7 cells (˜2×10^5 cells per 35-mm dish) in log phase were transfected with […] of FuGENE-6 in growth media. After 24 hr, transformed cells were stimulated with CID. After an additional 20 h, supernatants were assayed for SEAP activity as discussed previously (Spencer, D. M., et al., Science 262, 1019-1024 (1993)).
An inducible CD40 receptor based on chemical-induced dimerization (CID) and patterned after endogenous CD40 activation was produced to specifically target DCs (FIG. 1A). The recombinant CD40 receptor, termed iCD40, was engineered by rt-PCR amplifying the 228 bp CD40 cytoplasmic signaling domain from purified murine bone marrow-derived DCs (>95% CD11c+) and sub-cloning the resulting DNA fragment either downstream (i.e., M-FvFvlsCD40-E) or upstream (M-CD40-FvFvls-E) of tandem copies of the dimerizing drug binding domain, FKBP12(V36) (FIG. 1B). […]

[2] = target: T1, FKBP12(V36) (Homo sapiens, UniProt P62942, F37V); test: AP1903 needed in vitro for effective signaling of cells; type: cell-based
T1 construct: expressed in transfected cells; host or cells: cells transduced with Ad5f35-ihCD40 (human monocyte-derived dendritic cells); inferred, the sentence names no cells
Method: The fixed dose of AP1903 for Injection used in this study is 0.4 mg/kg intravenously infused over 2 hours. The amount of AP1903 needed in vitro for effective signaling of cells is 10-100 nM (1600 Da MW). This equates to 16-160 μg/L or ˜0.016-1.6 mg/kg (1.6-160 μg/kg). Doses up to 1 mg/kg were well-tolerated in the Phase I study of AP1903 described above. Therefore, 0.4 mg/kg may be a safe and effective dose of AP1903 for this Phase I study in combination with BPX-101.

[3] = cited from earlier work
[4] = target: T2, IL-6 (Homo sapiens, UniProt P05231); details: cited from earlier work
T2 construct: host or cells: patients' endogenous IL-6

[5] = patients with advanced cancer, Clarke et al.

T2 sequence (P05231 30-212): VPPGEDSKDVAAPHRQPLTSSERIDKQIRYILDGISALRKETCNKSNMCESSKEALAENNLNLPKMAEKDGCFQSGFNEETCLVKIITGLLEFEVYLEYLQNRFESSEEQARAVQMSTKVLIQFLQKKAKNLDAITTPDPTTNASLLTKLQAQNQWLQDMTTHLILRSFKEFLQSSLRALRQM
T1 sequence (P62942 2-108 F37V): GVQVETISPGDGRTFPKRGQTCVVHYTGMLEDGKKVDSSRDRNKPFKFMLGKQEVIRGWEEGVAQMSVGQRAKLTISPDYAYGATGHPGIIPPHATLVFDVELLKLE

CC[C@H](C(=O)N1CCCC[C@H]1C(=O)O[C@H](CCc1ccc(OC)c(OC)c1)c1cccc(OCC(=O)NCC(CNC(=O)COc2cccc([C@@H](CCc3ccc(OC)c(OC)c3)OC(=O)[C@@H]3CCCCN3C(=O)[C@@H](CC)c3cc(OC)c(OC)c(OC)c3)c2)CN(C)C)c1)c1cc(OC)c(OC)c(OC)c1 [AP20187]
high drug dose suppression ([1]; iCD40-transfected Jurkat T cells): over 100 nM | NF B transcriptional activity ([1]; increasing AP20187, iCD40 constructs vs control vector M-FvFvls-E): significant upregulation

CC[C@H](C(=O)N1CCCC[C@H]1C(=O)O[C@H](CCc1ccc(OC)c(OC)c1)c1cccc(OCC(=O)NCCNC(=O)COc2cccc([C@@H](CCc3ccc(OC)c(OC)c3)OC(=O)[C@@H]3CCCCN3C(=O)[C@@H](CC)c3cc(OC)c(OC)c(OC)c3)c2)c1)c1cc(OC)c(OC)c(OC)c1 (relative stereo) [AP1903, 2-Piperidinecarboxylic acid, 1-[(2S)-1-oxo-2-(3,4,5-trimethoxyphenyl)butyl]-, 1,2-ethanediylbis[imino(2-oxo-2,1-ethanediyl)oxy-3,1-phenylene[(1R)-3-(3,4-dimethoxyphenyl)propylidene]]ester, [2S-[1(R*),2R*[S*[S*[1(R*),2R*]]]]]-(9Cl)]
amount needed for effective signaling, converted to dose [2]: 0.016 to 1.6 mg/kg | amount needed in vitro for effective signaling of cells [2]: 10 to 100 nM | amount needed for effective signaling, converted ([2]; 1600 Da MW): 16 to 160 µg/L | mean Cmax ([3]; 0.01-1.0 mg/kg dose range, IV over 2 hours, plasma): 10 to 1275 ng/mL | AP1903 plasma levels versus dose ([3]; 0.01-1.0 mg/kg): directly proportional to dose | plasma level as % of maximal concentration ([3]; 0.5 hours post-dose): approximately 18% | plasma level as % of maximal concentration ([3]; 2 hours post-dose): ~7% | plasma level as % of maximal concentration ([3]; 10 hours post-dose): ~1% | well-tolerated doses ([3]; Phase I study of AP1903): up to 1 mg/kg

B1: ALD-518: humanized anti-IL-6 monoclonal antibody (antibody, chains of the INN, looked up, V domains shown)
VH: EVQLVESGGGLVQPGGSLRLSCAASGFSLSNYYVTWVRQAPGKGLEWVGIIYGSDETAYATSAIGRFTISRDNSKNTLYLQMNSLRAEDTAVYYCARDDSSDWDAKFNLWGQGTLVTVSS
VL: AIQMTQSPSSLSASVGDRVTITCQASQSINNELSWYQQKPGKAPKLLIYRASTLASGVPSRFSGSGSGTDFTLTISSLQPDDFATYYCQQGYSLRNIDNAFGGGTKVEIK
hematologic parameters and albumin ([4]; larger study, cancer-related anemia, cachexia and fatigue, Schuster et al.): increase hemoglobin, hematocrit, mean corpuscular hemoglobin, and albumin | C-reactive protein levels [4, 5]: decrease in C-reactive protein levels | fatigue, hemoglobin and albumin [4, 5]: reverse fatigue, increase hemoglobin and increase albumin | hand grip strength [4, 5]: trend to increased hand grip strength
